Results as given in ChEMBL document CHEMBL3046894, “Synthesis and Herbicidal Activity of Pyrimidinyl Salicylic and Thiosalicylic Acids” (J Pestic Sci, 1996).

How the values were obtained:
[1] = Pre-emergence phytotoxicity against Glycine max (soybean) assessed as mortality at 6.3 g a.i/10 a; type: organism-based; conditions: in vivo, 6.3 g a.i/10 a, read-out: Activity
[2] = system: Ipomoea lacunosa; assay: Pre-emergence herbicidal activity against Ipomoea lacunosa assessed as mortality at 6.3 g a.i/10 a; type: functional
[3] = system: Echinochloa crus-galli; assay: Post-emergence herbicidal activity against Echinochloa crus-galli (barnyard grass) assessed as mortality at 1.6 g a.i/10 a applied 11 days after germination as foliar spray; type: functional; conditions: 264 h
[4] = Pre-emergence phytotoxicity against Gossypium hirsutum (cotton) assessed as mortality at 6.3 g a.i/10 a; type: organism-based; conditions: in vivo, 6.3 g a.i/10 a, read-out: Activity
[5] = system: Zea mays; assay: (§1) Pre-emergence phytotoxicity against Zea mays (maize) assessed as mortality at 1.6 g a.i/10 a; type: organism-based; conditions: in vivo, other
[6] = system: Abutilon theophrasti; assay: Pre-emergence herbicidal activity against Abutilon theophrasti (velvetleaf) assessed as mortality at 1.6 g a.i/10 a; type: functional
[7] = system: Glycine max; assay: Post-emergence phytotoxicity against Glycine max (soybean) assessed as mortality at 6.3 g a.i/10 a applied 11 days after germination as foliar spray; type: organism-based; conditions: in vivo, other, 264 h
[8] = system: Abutilon theophrasti; assay: Post-emergence herbicidal activity against Abutilon theophrasti (velvetleaf) assessed as mortality at 1.6 g a.i/10 a applied 11 days after germination as foliar spray; type: functional; conditions: 264 h
[9] = system: Echinochloa crus-galli; assay: Pre-emergence herbicidal activity against Echinochloa crus-galli (barnyard grass) assessed as mortality at 6.3 g a.i/10 a; type: functional
[10] = system: Ipomoea lacunosa; assay: Pre-emergence herbicidal activity against Ipomoea lacunosa assessed as mortality at 1.6 g a.i/10 a; type: functional
[11] = Pre-emergence phytotoxicity against Glycine max (soybean) assessed as mortality at 1.6 g a.i/10 a; type: organism-based; conditions: in vivo, 1.6 g a.i/10 a, read-out: Activity
[12] = system: Glycine max; assay: Post-emergence phytotoxicity against Glycine max (soybean) assessed as mortality at 1.6 g a.i/10 a applied 11 days after germination as foliar spray; type: organism-based; conditions: in vivo, other, 264 h
[13] = system: Zea mays; assay: Post-emergence phytotoxicity against Zea mays (maize) assessed as mortality at 1.6 g a.i/10 a applied 11 days after germination as foliar spray; type: organism-based; conditions: in vivo, other, 264 h
[14] = system: Abutilon theophrasti; assay: Pre-emergence herbicidal activity against Abutilon theophrasti (velvetleaf) assessed as mortality at 6.3 g a.i/10 a; type: functional
[15] = system: Zea mays; assay: Pre-emergence phytotoxicity against Zea mays (maize) assessed as mortality at 6.3 g a.i/10 a; type: organism-based; conditions: in vivo, other
[16] = system: Gossypium hirsutum; assay: Pre-emergence phytotoxicity against Gossypium hirsutum (cotton) assessed as mortality at 1.6 g a.i/10 a; type: organism-based; conditions: in vivo, other
[17] = system: Gossypium hirsutum; assay: Post-emergence phytotoxicity against Gossypium hirsutum (cotton) assessed as mortality at 6.3 g a.i/10 a applied 11 days after germination as foliar spray; type: organism-based; conditions: in vivo, other, 264 h
[18] = system: Gossypium hirsutum; assay: Post-emergence phytotoxicity against Gossypium hirsutum (cotton) assessed as mortality at 1.6 g a.i/10 a applied 11 days after germination as foliar spray; type: organism-based; conditions: in vivo, other, 264 h
[19] = system: Abutilon theophrasti; assay: Post-emergence herbicidal activity against Abutilon theophrasti (velvetleaf) assessed as mortality at 6.3 g a.i/10 a applied 11 days after germination as foliar spray; type: functional; conditions: 264 h
[20] = system: Echinochloa crus-galli; assay: Post-emergence herbicidal activity against Echinochloa crus-galli (barnyard grass) assessed as mortality at 6.3 g a.i/10 a applied 11 days after germination as foliar spray; type: functional; conditions: 264 h
[21] = system: Zea mays; assay: Post-emergence phytotoxicity against Zea mays (maize) assessed as mortality at 6.3 g a.i/10 a applied 11 days after germination as foliar spray; type: organism-based; conditions: in vivo, other, 264 h
[22] = as §1; type: organism-based; conditions: in vivo, 1.6 g a.i/10 a, read-out: Activity
[23] = system: Xanthium strumarium; assay: Pre-emergence herbicidal activity against Xanthium strumarium (cocklebur) assessed as mortality at 1.6 g a.i/10 a; type: functional
[24] = system: Xanthium strumarium; assay: Pre-emergence herbicidal activity against Xanthium strumarium (cocklebur) assessed as mortality at 6.3 g a.i/10 a; type: functional

Row | SMILES | mortality [1] [%] | mortality at 16 g/ha [3] [%] | mortality [4] [%] | Activity [6] [%] | Activity [7] | Activity [10] [%] | mortality [11] [%] | Activity [12] | Activity [13] | Activity [15] | Activity [16] [%] | Activity [17] | Activity [18] | mortality at 63 g/ha [19] [%] | other results
1 | CCOc1cccc(Sc2nc(OC)cc(OC)n2)c1C(=O)O | < 50 | < 5 | < 50 | <50 | Toxic | <50 | < 50 | Toxic | Toxic | Toxic | < 50 | Toxic | Toxic | > 90 | Activity [2]: <50%; Activity [5]: Non-toxic; mortality at 16 g/ha [8]: > 90%; Activity [9]: >90%; Activity [14]: <50%
2 | CCSc1cccc(Sc2nc(OC)cc(OC)n2)c1C(=O)O | < 50 | < 5 | < 50 | <50 | Toxic | <50 | < 50 | Toxic | Toxic | Non-toxic | < 50 | Non-toxic | Non-toxic | > 90 | mortality at 63 g/ha [20]: < 5%; Activity [21]: Toxic; mortality [22]: < 50%; Activity [23]: <50%; Activity [24]: <50%
